The values that follow come from patent publication US9339522B2, “Method for regulating blood glucose level” (SINPHAR PHARMACEUTICAL CO., LTD., priority 2013, dated 2016).

Data set [1] concerns human hepatocellular liver carcinoma cell line (HepG2). The data set can be described thus: Carbohydrate consumption assay in HepG2 cells. It counts as cell-based. As for the experimental part: A carbohydrate consumption assay was conducted by using human hepatocellular liver carcinoma cell line (HepG2, Bioresource Collection and Research Center, BCRC number: 60025). The cells were treated with 1000 μg/ml glucose, and then treated with 100 nM insulin, 50 μg/ml Cistanche tubulosa extract (CTE), 12.5 μg/ml of echinacoside, 1.25 μg/ml of acteoside, or 2.25 μg/ml of isoacteoside (i.e., an active component by an amount of what it presents in the extract). After 1 hour, the carbohydrate consumption level was determined. The results are shown in FIG. 10, wherein the data were shown as mean±standard deviation (n=3); ***P<0.001 (as compared to the control group).
To further confirm if the active components that are present in Cistanche tubulosa extract have the effect of accelerating liver cells to uptake blood sugar, a carbohydrate consumption assay as described above was conducted by using different concentrations of Cistanche tubulosa extract, echinacoside, acteoside and isoacteoside to treated the HepG2 cells. The results are shown in FIG. 11, wherein the data were shown as mean±standard deviation (n=3); **P<0.01; ***P<0.001 (as compared to the control group); #P<0.05 (as compared to the insulin group).

The next data set concerns liver cells. The note with it: acteoside obtained from plantago, CN 102283854 A; cited from earlier work.
The test system of data set [2] is mice having type I diabetes or type II diabetes induced by different medicaments. The note with it: mice with induced type I or type II diabetes; acteoside obtained from plantago; CN 102283854 A; cited from earlier work.
A short description of data set [3]: Body weight and caloric intake of diabetic SD rats during 6 weeks treatment. It counts as in vivo, SD (Sprague-Dawley) rats. The note with it: FIG. 1; measured weekly; comparison between groups; rosiglitazone 0.571 mg/kg, CTE 80, 160, 320 mg/kg oral once daily 6 weeks. As for the experimental part:
4-week-old male SD (Sprague-Dawley) rats were fed for one week, and then randomly divided into six groups (10 rats in each group), including five experimental groups and a control group. The rats in the experimental groups were intraperitoneally injected with 230 mg/kg body weight of nicotinamide, and then intraperitoneally injected with 65 mg/kg body weight of streptozocin to induced diabetes mellitus (the DM group). The control group was intraperitoneally injected with the same volume of a citrate buffer (pH 4.5). After a week, the fasting blood glucose of the induced diabetic rats in the experimental groups were measured, to confirmed the fasting blood glucose>[…]. The rats were then fed with a 45% high fat diet (HFD) for 6 weeks. Then, using the dosage shown in Table 1, the rats were orally administered with 0.571 mg/kg body weight of rosiglitazone (a medicine for regulating blood glucose levels, which is an insulin sensitizer) (DMR group) or 80 mg/kg body weight of Cistanche tubulosa extract (CTE) (DME1 group), 160 mg/kg body weight of CTE (DME2 group), or 320 mg/kg body weight of CTE (DME4 group), once daily for 6 weeks. The rats in the control group and the DM group were administered with double distilled water once daily for 6 weeks. The body weight of the rats was measured weekly and the caloric intake was calculated. […]

Data set [4] relates to induced diabetic rats. The data set can be described thus: Determination of fasting plasma glucose concentration. Type of data set: in vivo, SD (Sprague-Dawley) rats. The settings on record: DMR group: rosiglitazone 0.571 mg/kg body weight oral once daily 6 weeks; DM + 45% HFD rats; mean, n = 10. As for the experimental part:
(§1) 4-week-old male SD (Sprague-Dawley) rats were fed for one week, and then randomly divided into six groups (10 rats in each group), including five experimental groups and a control group. The rats in the experimental groups were intraperitoneally injected with 230 mg/kg body weight of nicotinamide, and then intraperitoneally injected with 65 mg/kg body weight of streptozocin to induced diabetes mellitus (the DM group). The control group was intraperitoneally injected with the same volume of a citrate buffer (pH 4.5). […] The rats in the control group and the DM group were administered with double distilled water once daily for 6 weeks. The body weight of the rats was measured weekly and the caloric intake was calculated.
(§2) After the above glucose tolerance test, the rats were sacrificed, and the blood samples were taken from the celiac artery. The blood samples were centrifuged at 3000 rpm, 4° C. for 15 minutes. The supernatant was collected, which is the plasma. Other tissue of the rats was also taken out and weighed, and then stored at −80° C. for the following biochemical data analysis.

Data set [5] has as its system induced diabetic rats. The data set can be described thus: Determination of total triglyceride concentration in plasma. It counts as in vivo, SD (Sprague-Dawley) rats. The note with it: DMR group: rosiglitazone 0.571 mg/kg body weight oral once daily 6 weeks, DM + 45% HFD rats, mean, n = 10. How it is done: as §1, §2
Data set [6] relates to induced diabetic rats. The data set can be described thus: Determination of total cholesterol concentration in plasma. It counts as in vivo, SD (Sprague-Dawley) rats. The note with it: DMR group: rosiglitazone 0.571 mg/kg body weight oral once daily 6 weeks, DM + 45% HFD rats, mean, n = 10. As for the experimental part: as §1, §2
For data set [7], the system named is induced diabetic rats. The data set can be described thus: Determination of plasma insulin concentration (ELISA). The note with it: DMR group: rosiglitazone 0.571 mg/kg body weight oral once daily 6 weeks, DM + 45% HFD rats, mean, n = 10. It counts as in vivo, SD (Sprague-Dawley) rats. How it is done: as §1, §2
The test system of data set [8] is induced diabetic rats. The data set can be described thus: Determination of plasma leptin concentration (enzyme immunoassay). Type of data set: in vivo, SD (Sprague-Dawley) rats. The note with it: DMR group: rosiglitazone 0.571 mg/kg body weight oral once daily 6 weeks, DM + 45% HFD rats, mean, n = 10. As for the experimental part:
as §1, §2

Data set [9] deals with induced diabetic rats. The data set can be described thus: Homeostasis model assessment equation of insulin resistance (HOMA-IR). Type of data set: in vivo, SD (Sprague-Dawley) rats. The note with it: DMR group: rosiglitazone 0.571 mg/kg body weight oral once daily 6 weeks; DM + 45% HFD rats; mean, n = 10. As for the experimental part: 4-week-old male SD (Sprague-Dawley) rats were fed for one week, and then randomly divided into six groups (10 rats in each group), including five experimental groups and a control group. The rats in the experimental groups were intraperitoneally injected with 230 mg/kg body weight of nicotinamide, and then intraperitoneally injected with 65 mg/kg body weight of streptozocin to induced diabetes mellitus (the DM group). The control group was intraperitoneally injected with the same volume of a citrate buffer (pH 4.5). After a week, the fasting blood glucose of the induced diabetic rats in the experimental groups were measured, to confirmed the fasting blood glucose>[…]. The rats were then fed with a 45% high fat diet (HFD) for 6 weeks. […] The body weight of the rats was measured weekly and the caloric intake was calculated. […]
The homeostasis model assessment equation of insulin resistance (HOMA-IR) was calculated by the formula as follows: HOMA-IR=fasting plasma insulin concentration (mU/ml)×fasting plasma glucose concentration (mmole/L)÷22.5

The subject of data set [10] is induced diabetic rats. The data set can be described thus: Liver and kidney function indicators in plasma (urea, creatinine, ALT, AST). Type of data set: in vivo, SD (Sprague-Dawley) rats. The settings on record: DMR group: rosiglitazone 0.571 mg/kg body weight oral once daily 6 weeks, DM + 45% HFD rats, mean, n = 10. As for the experimental part: as §1, §2
It has been known that diabetes mellitus may cause a lot of complications.

For data set [11], the system named is induced diabetic rats. The data set can be described thus: Plasma antioxidant enzymes (SOD, catalase, GPx). It counts as in vivo, SD (Sprague-Dawley) rats. The settings on record: DMR group: rosiglitazone 0.571 mg/kg body weight oral once daily 6 weeks, DM + 45% HFD rats, mean, n = 10. How it is done:
as §1, §2
It has been known that both Type I diabetes mellitus and Type II diabetes mellitus may cause the decreased expression of antioxidant enzymes in the body, and thus, increases oxidative stress. In this experiment, the concentrations of superoxide dismutase (SOD) catalase, and glutathione peroxidase (GPx) in the plasma of the rats were analyzed by an SOD detection kit, a catalase detection kit, and a GPx detection kit (Eugene-Chen CO., LTD, TW), respectively, to analyze the effect of CTE on the expression levels of antioxidant enzymes.

Data set [12] relates to induced diabetic rats. The data set can be described thus: Over-oxidation of plasma lipid (plasma malondialdehyde). It counts as in vivo, SD (Sprague-Dawley) rats. The settings on record: DMR group: rosiglitazone 0.571 mg/kg body weight oral once daily 6 weeks, DM + 45% HFD rats, mean, n = 10. How it is done:
as §1, §2

A short description of data set [13]: Weights of the liver, kidney, heart, and abdominal fat of the rats. It counts as in vivo, SD (Sprague-Dawley) rats. The note with it: DMR group: rosiglitazone 0.571 mg/kg body weight oral once daily 6 weeks; DM + 45% HFD rats; mean, n = 10. As for the experimental part: 4-week-old male SD (Sprague-Dawley) rats were fed for one week, and then randomly divided into six groups (10 rats in each group), including five experimental groups and a control group. The rats in the experimental groups were intraperitoneally injected with 230 mg/kg body weight of nicotinamide, and then intraperitoneally injected with 65 mg/kg body weight of streptozocin to induced diabetes mellitus (the DM group). The control group was intraperitoneally injected with the same volume of a citrate buffer (pH 4.5). After a week, the fasting blood glucose of the induced diabetic rats in the experimental groups were measured, to confirmed the fasting blood glucose>[…]. The rats were then fed with a 45% high fat diet (HFD) for 6 weeks. Then, using the dosage shown in Table 1, the rats were orally administered with 0.571 mg/kg body weight of rosiglitazone (a medicine for regulating blood glucose levels, which is an insulin sensitizer) (DMR group) or 80 mg/kg body weight of Cistanche tubulosa extract (CTE) (DME1 group), 160 mg/kg body weight of CTE (DME2 group), or 320 mg/kg body weight of CTE (DME4 group), once daily for 6 weeks. The rats in the control group and the DM group were administered with double distilled water once daily for 6 weeks. The body weight of the rats was measured weekly and the caloric intake was calculated. The results are shown in FIG. 1 (body weight) and FIG. 2 (caloric intake).
In this experiment, the weights of the liver, kidney, heart, and abdominal fat of the rats treated with different conditions for 6 weeks were determined.

[14] abbreviates: FIG. 11, 5 μg/ml and 50 μg/ml, HepG2, compared to the control group, dose dependence.
Where [15] appears, read: FIG. 11, very low concentration, such as 5 μg/ml, HepG2.

With `C[C@@H]1O[C@@H](O[C@@H]2[C@@H](O)[C@H](OCCc3ccc(O)c(O)c3)O[C@H](CO)[C@H]2OC(=O)/C=C/c2ccc(O)c(O)c2)[C@H](O)[C@H](O)[C@H]1O` [acteoside], the Carbohydrate consumption level result in data set [1] (FIG. 10, 1.25 μg/ml, HepG2, 1000 μg/ml glucose, after 1 hour, compared to the control group) was “not obvious”. Moreover, the Carbohydrate consumption level result in data set [1] (setting [14]) is recorded as “effectively increase”. Also, the Consumption of glucose entry in the data set with liver cells is “effective in promoting the consumption of glucose”. Also, in data set [2], the “Fasting blood glucose level” value was “decrease” and the Serum insulin level result is “enhancing”.

With `C[C@@H]1O[C@@H](O[C@@H]2[C@@H](O)[C@H](OCCc3ccc(O)c(O)c3)O[C@H](COC(=O)/C=C/c3ccc(O)c(O)c3)[C@H]2O)[C@H](O)[C@H](O)[C@H]1O` [isoacteoside], the Carbohydrate consumption level result in [1] (FIG. 10, 2.25 μg/ml, HepG2, 1000 μg/ml glucose, after 1 hour, compared to the control group) is recorded as “effectively increase”; in data set [1] (setting [14]), “effectively increase”; in data set [1] (setting [15]) it was “increase”.

As to `CN(CCOc1ccc(CC2SC(=O)NC2=O)cc1)c1ccccn1` (stereo not shown) [rosiglitazone], in data set [3], the Body weight entry is “no significant difference”. Also, the Fasting blood glucose in the data set on induced diabetic rats [4] was 134.37 mg/dL. Besides, the The total triglyceride in the data set with induced diabetic rats [5] was 62.77 mg/dL. Further, the Total cholesterol in the data set on induced diabetic rats [6] amounted to 106.90 mg/dL. Also, the Insulin in the data set on induced diabetic rats [7] came to 3.57 ng/mL. Moreover, the Leptin in the data set with induced diabetic rats [8] stood at 6.38 ng/mL. Moreover, the HOMA-IR in the data set with induced diabetic rats [9] came out at 2.37 μg · mmole/L^2. In the data set with induced diabetic rats [10], the ALT is recorded as 29.88 U/L, the AST was 38.24 U/L, the AST/ALT is 1.34 and the Creatinine was determined as 1.19 mg/dL. Also, the Urea in the data set on induced diabetic rats [10] amounted to 19.14 mg/dL. Further, in the data set on induced diabetic rats [11], the Catalase came to 60.05 U/mg protein, the Glutathione peroxidase amounted to 811.08 U/mg protein and the Superoxide dismutase was 0.65 U/mg protein. For the same molecule, the Malondialdehyde in the data set on induced diabetic rats [12] worked out at 13.38 nM/ml. For the same molecule, in data set [13], the “Abdominal fat weight, percentage compared to body weight” value turned out to be 2.49%; the “Heart weight, percentage compared to body weight” value is 0.34%; the “Kidney weight, percentage compared to body weight” value amounted to 0.34%; the “Liver weight, percentage compared to body weight” value came out at 3.21%.

For `C[C@@H]1O[C@@H](O[C@@H]2[C@@H](O)[C@H](OCCc3ccc(O)c(O)c3)O[C@H](CO[C@@H]3O[C@H](CO)[C@@H](O)[C@H](O)[C@H]3O)[C@H]2OC(=O)/C=C/c2ccc(O)c(O)c2)[C@H](O)[C@H](O)[C@H]1O` [echinacoside], the Carbohydrate consumption level result is reported as “effectively increase” in [1] (FIG. 10, 12.5 μg/ml, HepG2, 1000 μg/ml glucose, after 1 hour, compared to the control group); “effectively increase” in data set [1] (setting [14]); “increase” in [1] (setting [15]).
